In patent US9085555B2, “Complement pathway modulators and uses thereof” (priority 2011, dated 2015):
Like-named read-outs stand apart in the source and are kept apart here.

Target: Factor D (Homo sapiens (Human), UniProt P00746)
Assay: biochemical
Format: biochemical

Sequence of Factor D (P00746 26-253): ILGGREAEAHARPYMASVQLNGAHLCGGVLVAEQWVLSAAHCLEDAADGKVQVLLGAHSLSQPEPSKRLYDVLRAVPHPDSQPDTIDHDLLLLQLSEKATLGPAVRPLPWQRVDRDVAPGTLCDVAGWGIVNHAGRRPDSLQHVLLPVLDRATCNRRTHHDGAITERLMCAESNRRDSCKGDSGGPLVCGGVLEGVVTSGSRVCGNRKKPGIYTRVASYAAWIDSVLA

NC(=O)n1cc(NC(=O)N2C[C@H](F)C[C@H]2CNS(=O)(=O)c2ccccc2)c2ccccc21 [Example 105, 3-{[(2S,4R)-2-(Benzenesulfonylamino-methyl)-4-fluoro-pyrrolidine-1-carbonyl]-amino}-indole-1-carboxylic acid amide]
IC50 (read-out: IC50): 0.8 µM

NC(=O)n1cc(NC(=O)N2C[C@@H](N)[C@H](O)[C@H]2C(=O)NCc2cccc(Cl)c2F)c2ccccc21 [Example 429, 2S,3S,4R)-4-Amino-3-hydroxy-pyrrolidine-1,2-dicarboxylic acid 1-[(1-carbamoyl-1H-indol-3-yl)-amide]2-(3-chloro-2-fluoro-benzylamide]
IC50 (read-out: IC50): 1.04 µM

CC(=O)c1cn(CC(=O)N2C[C@H](F)C[C@H]2C(=O)NCc2cccc(Cl)c2F)c2cc(CC(=O)O)ccc12 [Example 595, (3-Acetyl-1-{2-[(2S,4R)-2-(3-chloro-2-fluoro-benzylcarbamoyl)-4-fluoro-pyrrolidin-1-yl]-2-oxo-ethyl}-1H-indol-6-yl)-acetic acid]
IC50 (read-out: IC50): 0.041 µM

NC(=O)n1cc(NC(=O)N2C[C@H](F)C[C@H]2C(=O)NCc2cccc(C(F)(F)F)c2F)c2ccccc21 [Example 222, (2S,4R)-4-Fluoro-pyrrolidine-1,2-dicarboxylic acid 1-[(1-carbamoyl-1H-indol-3-yl)-amide] 2-(2-fluoro-3-trifluoromethyl-benzylamide)]
IC50 (read-out: IC50): 0.137 µM

C=CCOc1ccc2c(c1)c(NC(=O)N1[C@@H]3C[C@@H]3C[C@H]1C(=O)NCc1cccc(Cl)c1F)cn2C(N)=O [Example 268, (1R,3S,5R)-2-Aza-bicyclo[3.1.0]hexane-2,3-dicarboxylic acid 2-[(5-allyloxy-1-carbamoyl-1H-indol-3-yl)-amide] 3-(3-chloro-2-fluoro-benzylamide)]
IC50 (read-out: IC50): 0.008 µM

COCCOc1ccc2c(c1)c(NC(=O)N1C[C@H](F)C[C@H]1C(=O)NCc1cccc(Cl)c1F)cn2C(N)=O [Example 303, (2S,4R)-4-Fluoro-pyrrolidine-1,2-dicarboxylic acid 1-{[1-carbamoyl-5-(2-methoxy-ethoxy)-1H-indol-3-yl]-amide} 2-(3-chloro-2-fluoro-benzylamide)]
IC50 (read-out: IC50): 0.008 µM

CC(C)c1cc(NC(=O)[C@@H]2CCCN2C(=O)Nc2cn(C(N)=O)c3ccccc23)on1 [Example 439, (S)-Pyrrolidine-1,2-dicarboxylic acid 1-[(1-carbamoyl-1H-indol-3-yl)-amide]2-[(3-isopropyl-isoxazol-5-yl)-amide]]
IC50 (read-out: IC50): 1.25 µM

COc1cc(NC(=O)[C@@H]2C[C@@H](F)CN2C(=O)Nc2cn(C(N)=O)c3ccccc23)ccn1 [Example 309, (2S,4R)-4-Fluoro-pyrrolidine-1,2-dicarboxylic acid 1-[(1-carbamoyl-1H-indol-3-yl)-amide] 2-[(2-methoxy-pyridin-4-yl)-amide]]
IC50 (read-out: IC50): 0.55 µM

COc1ccc2c(c1)c(CC(=O)N1C3CC3C[C@H]1C(=O)NCc1cccc(Cl)c1F)cn2C(N)=O (stereo partly drawn) [Example 452, 3-{2-[(1R,3S,5R)-3-(3-Chloro-2-fluoro-benzylcarbamoyl)-2-aza-bicylo[3.1.0]hex-2-yl]-2-oxo-ethyl}-5-methoxy-indole-1-carboxylic acid amide]
IC50 (read-out: IC50): 0.015 µM

[2H]C([2H])([2H])C(=O)c1cn(CC(=O)N2C[C@H](F)[C@@H](OC)[C@H]2C(=O)NCc2cccc(Cl)c2F)c2ccccc12 [Example 619, (2S,3S,4S)-1-[2-(3-Acetyl-d3-indol-1-yl)-acetyl]-4-fluoro-3-methoxy-pyrrolidine-2-carboxylic acid 3-chloro-2-fluoro-benzylamide]
IC50: 0.014 µM

NC(=O)n1cc(NC(=O)N2C3CC3C[C@H]2C(=O)NCc2ncccc2F)c2ccccc21 (some centres unmarked) [Example 242]
IC50 (read-out: IC50): 0.2 µM

NC(=O)n1cc(NC(=O)N2C[C@H](F)C[C@H]2C(=O)NCc2cccc(Cl)c2F)c2ccc(OC(F)F)cc21 [Example 308, (2S,4R)-4-Fluoro-pyrrolidine-1,2-dicarboxylic acid 1-[(1-carbamoyl-6-difluoromethoxy-1H-indol-3-yl)-amide] 2-(3-chloro-2-fluoro-benzylamide)]
IC50 (read-out: IC50): 0.127 µM

CC(=O)c1cn(CC(=O)N2[C@@H]3C[C@@H]3C[C@H]2C(=O)NCc2cccc(Cl)c2F)c2ccc(OCc3ncccn3)cc12 [Example 666, (1R,3S,5R)-2-{2-[3-Acetyl-5-(pyrimidin-2-ylmethoxy)-indol-1-yl]-acetyl}-2-aza-bicyclo [3.1.0]hexane-3-carboxylic acid 3-chloro-2-fluoro-benzylamide]
IC50 (read-out: IC50): 0.006 µM

COc1ccc2c(C(C)=O)cn(CC(=O)N3C[C@H](F)[C@@H](OC)[C@H]3C(=O)NCc3cccc(Cl)c3F)c2c1 [Example 487, (2S,3S,4S)-1-[2-(3-Acetyl-6-methoxy-indol-1-yl)-acetyl]-4-fluoro-3-methoxy-pyrrolidine-2-carboxylic acid 3-chloro-2-fluoro-benzylamide]
IC50 (read-out: IC50): 0.013 µM

NC(=O)n1cc(NC(=O)N2C[C@@H](N)C[C@H]2C(=O)NCc2cccc(Oc3ccccc3)c2)c2ccccc21 [Example 38, (2S,4S)-4-Amino-pyrrolidine-1,2-dicarboxylic acid 1-[(1-carbamoyl-1H-indol-3-yl)-amide] 2-(3-phenoxy-benzylamide)]
IC50 (read-out: IC50): 6.3 µM

CCO[C@H]1[C@@H](C(=O)NCc2cccc(Cl)c2F)N(C(=O)Cn2cc(C(C)=O)c3ccccc32)C[C@@H]1F [Example 569, (2S,3S,4S)-1-[2-(3-Acetyl-indol-1-yl)-acetyl]-4-fluoro-3-ethoxy-pyrrolidine-2-carboxylic acid 3-chloro-2-fluoro-benzylamide]
IC50 (read-out: IC50): 0.013 µM

CCc1cccc(CNC(=O)[C@@H]2C[C@H](N)CN2C(=O)Nc2cn(C(N)=O)c3ccccc23)c1 [Example 100, (2S,4S)-4-Amino-pyrrolidine-1,2-dicarboxylic acid 1-[(1-carbamoyl-1H-indol-3-yl)-amide] 2-(3-ethyl-benzylamide)]
IC50 (read-out: IC50): 17.6 µM

NC(=O)n1cc(NC(=O)N2CCC[C@H]2C(=O)Nc2cccc(OC(F)(F)F)c2)c2ccc(Cl)cc21 [Example 291, (S)-Pyrrolidine-1,2-dicarboxylic acid 1-[(1-carbamoyl-6-chloro-1H-indol-3-yl)-amide] 2-[(3-trifluoromethoxy-phenyl)-amide]]
IC50 (read-out: IC50): 3.25 µM

CC(=O)c1cn(CC(=O)N2C[C@@H]3C[C@@H]3[C@H]2C(=O)NCc2cccc(Cl)c2F)c2cnccc12 [Example 544, (1S,2S,5R)-3-[2-(3-Acetyl-pyrrolo[2,3-c]pyridin-1-yl)-acetyl]-3-aza-bicyclo[3.1.0] hexane-2-carboxylic acid 3-chloro-2-fluoro-benzylamide]
IC50 (read-out: IC50): 1.11 µM

COC(=O)C(NC(=O)[C@@H]1C[C@H](N)CN1C(=O)Nc1cn(C(N)=O)c2ccccc12)C(C)C (stereo in doubt) [Example 94, (R)-2-{[(2S,4S)-4-Amino-1-(1-carbamoyl-1H-indol-3-ylcarbamoyl)-pyrrolidine-2-carbonyl]-amino}-3-methyl-butyric acid methyl ester]
IC50 (read-out: IC50): 11 µM

NC(=O)n1cc(NC(=O)N2C[C@@H](N)C[C@H]2C(=O)NCc2cccc(Cl)c2F)c2ccccc21 [Example 26, (2S,4S)-4-Amino-pyrrolidine-1,2-dicarboxylic acid 1-[(1-carbamoyl-1H-indol-3-yl)-amide]2-(3-chloro-2-fluoro-benzylamide)]
IC50 (read-out: IC50): 0.025 µM

NC(=O)c1cn(CC(=O)N2C[C@@](F)(CO)C[C@H]2C(=O)NCc2cccc(Cl)c2F)c2ccccc12 [Example 566, 1-{2-[(2S,4R)-2-(3-Chloro-2-fluoro-benzylcarbamoyl)-4-fluoro-4-hydroxymethyl-pyrrolidin-1-yl]-2-oxo-ethyl}-1H-indole-3-carboxylic acid amide]
IC50 (read-out: IC50): 0.436 µM

NC(=O)n1cc(NC(=O)N2CCC[C@H]2C(=O)NCc2cccc(Cl)c2F)c2ccccc21 [Example 170, (S)-Pyrrolidine-1,2-dicarboxylic acid 1-[(1-carbamoyl-1H-indol-3-yl)-amide] 2-(3-chloro-2-fluoro-benzylamide)]
IC50 (read-out: IC50): 0.03 µM

CC(=O)n1cc(NC(=O)N2C[C@H](F)C[C@H]2C(=O)NCc2cccc(Cl)c2F)c2ccc(OC(F)F)cc21 [Example 368, 2S,4R)-4-Fluoro-pyrrolidine-1,2-dicarboxylic acid 1-[(1-acetyl-6-difluoromethoxy-1H-indol-3-yl)-amide]2-(3-chloro-2-fluoro-benzylamide]
IC50 (read-out: IC50): 0.066 µM

NC(=O)n1cc(NC(=O)N2C[C@@H]3C[C@@H]3[C@H]2C(=O)NCc2cccc(Cl)c2F)c2cc(OCCO)ccc21 (relative stereo) [Example 382, 1S*,2S*,5R*)-3-Aza-bicyclo[3.1.0]hexane-2,3-dicarboxylic acid 3-{[1-carbamoyl-5-(2-hydroxy-ethoxy)-1H-indol-3-yl]-amide}2-(3-chloro-2-fluoro-benzylamide]
IC50: 0.184 µM

NC(=O)c1nn(CC(=O)N2[C@@H]3C[C@@H]3C[C@H]2C(=O)NCc2cccc(Cl)c2F)c2ccccc12 [Example 692, 1-{2-[(1R,3S,5R)-3-(3-Chloro-2-fluoro-benzylcarbamoyl)-2-aza-bicyclo[3.1.0]hex-2-yl]-2-oxo-ethyl}-1H-indazole-3-carboxylic acid amide]
IC50 (read-out: IC50): 0.003 µM

CC(C)(O)COc1ccc2c(c1)c(NC(=O)N1C3CC3C[C@H]1C(=O)NCc1cccc(Cl)c1F)cn2C(N)=O (stereo partly drawn) [Example 386, 1R,3S,5R)-2-Aza-bicyclo[3.1.0]hexane-2,3-dicarboxylic acid 2-{[1-carbamoyl-5-(2-hydroxy-2-methyl-propoxy)-1H-indol-3-yl]-amide}3-(3-chloro-2-fluoro-benzylamide]
IC50 (read-out: IC50): 0.008 µM

CC(=O)c1nn(CC(=O)N2[C@@H]3C[C@@H]3C[C@H]2C(=O)Nc2cccc(OC(F)(F)F)c2F)c2ccc(OCc3ncccn3)cc12 [Example 718, (1R,3S,5R)-2-{2-[3-Acetyl-5-(pyrimidin-2-ylmethoxy)-indazol-1-yl]-acetyl}-2-aza-bicyclo[3.1.0]hexane-3-carboxylic acid (2-fluoro-3-trifluoromethoxy-phenyl)-amide]
IC50 (read-out: IC50): 0.024 µM

CC(=O)c1cn(CC(=O)N2C[C@H](F)C[C@H]2C(=O)NCc2cccc(Cl)c2F)c2ccc(OCc3ncccn3)cc12 [Example 590, (2S,4R)-1-{2-[3-Acetyl-5-(pyrimidin-2-ylmethoxy)-indol-1-yl]-acetyl}-4-fluoro-pyrrolidine-2-carboxylic acid 3-chloro-2-fluoro-benzylamide]
IC50 (read-out: IC50): 0.01 µM
